These results are taken from patent US20240409543A1, “PYRROLOPYRAZOLE SPIRO COMPOUND” (CHIA TAI TIANQING PHARMACEUTICAL GROUP CO., LTD., priority 2021, published 2024).

For experiment [1], the system named is MiaPaCa-2 cells (MIAPACA2_PANCREAS). Kind of experiment: Anti-proliferation experiment on tumor cells with KRAS mutations, MiaPaCa-2 (3D CellTiter-Glo). Type of experiment: cell-based. The settings on record: Homo sapiens, MIA PaCa-2, 72 h, 3 days incubation with compound, ultra-low attachment plate. The text has this: (§1) Cell culture medium, penicillin/streptomycin antibiotics purchased from Wisent, and fetal bovine serum purchased from Biosera; 3D CellTiter-Glo (chemiluminescence detection reagent for cell viability) reagent purchased from Promega; Cell lines purchased from Nanjing Cobioer Biosciences Co., Ltd. and Wuhan Procell Life Science & Technology Co., Ltd; and Envision multimode microplate reader (PerkinElmer).
(§2) Different types of tumor cells were each seeded in an ultra-low attachment 96-well U-bottom plate, with 80 μL of cell suspension per well. The cell plate was incubated in a CO2 incubator overnight.
(§3) Each test compound was diluted in a 5-fold gradient to the 9th concentration (i.e., from 2 mM to 5.12 nM or from 200 μM to 0.512 nM) using a multi-channel pipette, with duplicate wells set up. 78 μL of medium was added to an intermediate plate, and the serially diluted compound was transferred to the corresponding wells of the intermediate plate at 2 μL/well. The mixture was mixed well and then transferred to the cell plate at 20 µL/well. The concentration of the compound transferred to the cell plate ranged from 10 μM to 0.0256 nM or from 1 μM to 0.00256 nM. The cell plate was then incubated in a CO2 incubator for 3-6 days.
(§4) The chemiluminescence detection reagent for cell viability was added to the cell plate at 100 μL/well, and the luminescence signals were stabilized by incubation for 10 min at room temperature. Readings were taken using the multimode microplate reader.
(§5) The original data were converted to inhibition rates and then the IC50 values were obtained by curve fitting using a four-parameter method (obtained from the “log(inhibitor) vs. response—Variable slope” model in GraphPad Prism). Table 2 illustrates the inhibitory activity of the compounds disclosed herein against the proliferation of different types of tumor cells.

A further experiment deals with T1, SHP2 (Homo sapiens, UniProt Q06124).
T1 construct: Homogeneous Full Length SHP-2 Assay Kit (purchased from BPS Bioscience); purchased BPS Bioscience
T1 sequence (Q06124 1-593): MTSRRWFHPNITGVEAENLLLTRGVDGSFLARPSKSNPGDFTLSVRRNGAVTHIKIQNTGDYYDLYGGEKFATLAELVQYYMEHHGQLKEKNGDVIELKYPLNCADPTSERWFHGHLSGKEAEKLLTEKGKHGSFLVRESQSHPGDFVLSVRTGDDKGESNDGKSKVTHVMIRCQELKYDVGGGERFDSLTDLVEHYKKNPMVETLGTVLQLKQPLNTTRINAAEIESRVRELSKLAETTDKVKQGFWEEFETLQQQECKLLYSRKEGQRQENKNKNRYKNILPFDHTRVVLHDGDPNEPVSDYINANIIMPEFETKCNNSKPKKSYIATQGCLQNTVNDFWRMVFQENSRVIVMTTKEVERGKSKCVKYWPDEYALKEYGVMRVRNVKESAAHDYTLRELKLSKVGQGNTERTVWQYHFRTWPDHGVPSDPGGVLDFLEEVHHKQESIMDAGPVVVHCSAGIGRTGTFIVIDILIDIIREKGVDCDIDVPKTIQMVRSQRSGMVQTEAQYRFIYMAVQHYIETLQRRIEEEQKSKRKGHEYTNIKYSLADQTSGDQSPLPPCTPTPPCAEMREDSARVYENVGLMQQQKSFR
Kind of experiment: SHP2 in-vitro enzymology experiment (Homogeneous Full Length SHP-2 Assay Kit, DiFMUP substrate). Type of experiment: biochemical. The settings on record: 60 min pre-incubation, 30 min reaction at 25° C. The method, then:
Experimental materials: Homogeneous Full Length SHP-2 Assay Kit (purchased from BPS Bioscience) and NIVO multimode microplate reader.
Preparation of 1× buffer (ready-to-use): 5× buffer was diluted with deionized water to give 1× buffer, which was then placed on ice for later use.
Each test compound was diluted with 100% DMSO to 100 μM as the first concentration, and then diluted in a 4-fold gradient to the 8th concentration (i.e., from 100 μM to 6.1 nM) using a multi-channel pipette. Each gradient of the test compound was diluted with 1× buffer to prepare a working solution with 10% DMSO. The resulting solution was then added to the corresponding wells of a plate at 5 μL/well, with duplicate wells set up. The plate was then centrifuged at 1000 rpm for 1 min.
18 μL of a prepared reaction mixed solution (containing 12.25 μL of deionized water, 5 μL of 5× buffer; 0.25 μL of SHP-2 substrate polypeptide (100 μM), and 0.5 μL of DTT (250 mM)) was added to each well. The plate was then centrifuged at 1000 rpm for 1 min.
An SHP-2 enzyme was diluted to 0.1 ng/μL with 1× buffer. The resulting solution was added to the corresponding wells at 2 μL/well, and 2 μL of 1× buffer and […] were added to each negative control well. This step was performed on ice. The reaction system was then incubated at 25° C. for 60 min for compound pre-incubation.
After the compound pre-incubation was completed, 25 μL of a substrate working solution (containing 19.45 μL of deionized water, 5 μL of 5× buffer; 0.5 μL of DTT (250 mM), and 0.05 μL of SHP-2 Substrate (DiFMUP) (10 mM)) was added to each well, and the reaction system was allowed to react at 25° C. for 30 min. At that time, the final concentration gradient of the compound ranged from 1 μM to 0.061 nM. After the reaction was completed, the fluorescence values were read using the NIVO multimode microplate reader, with an excitation wavelength of 360 nm and an emission wavelength of 460 nm.
Detection of compound background reading values: Each gradient of the test compound diluted with 100% DMSO was added to a new compound plate at 5 μL/well, and then 1× buffer was added at 45 μL/well to achieve a 10-fold dilution to prepare a working solution with 10% DMSO. Next, the compound working solution was added to the detection plate at 5 μL/well, and then 1× buffer was added at 45 μL/well to achieve another 10-fold dilution, bringing the final concentration of DMSO to 1%. The plate was then centrifuged at 1000 rpm for 1 min. The fluorescence values were read using the multimode microplate reader, with an excitation wavelength of 360 nm and an emission wavelength of 460 nm.
The original data were converted to inhibition rates and the IC50 values were obtained by curve fitting using a four-parameter method.

For experiment [2], the system named is H358 cells (NCIH358_LUNG). Kind of experiment: Anti-proliferation experiment on tumor cells with KRAS mutations, H358 (3D CellTiter-Glo). Type of experiment: cell-based. The settings on record: Homo sapiens, NCI-H358, 120 h, 5 days incubation with compound, ultra-low attachment plate.
From the text: as §1, §2, §3, §4, §5

In experiment [3] the test system is ERK phosphorylation in H358 cells. Kind of experiment: Inhibitory activity against ERK phosphorylation in H358 cells (HTRF Phospho-ERK1/2 kit). Type of experiment: cell-based. To be noted: Homo sapiens, NCI-H358; starved H358 cells, 1 h compound incubation; read-out: H358 cell ERK phosphorylation IC50. On the procedure: H358 cells purchased from Nanjing Cobioer Biosciences Co., Ltd., 1640 medium purchased from Biological industries, fetal bovine serum purchased from Biosera, and Advanced Phospho-ERK1/2 (THR202/TYR204) KIT purchased from Cisbio.
• 1. H358 cells were plated in a transparent 96-well cell culture plate, with 80 μL of cell suspension per well, each well containing 10000 H358 cells. The cell plate was incubated in a CO2 incubator at 37° C. overnight. • 2. The cell supernatant was discarded, and a starvation medium (1640+0.02% fetal bovine serum+1% […]) was added at 80 μL/well. The cell plate was then incubated in a CO2 incubator for cell starvation treatment overnight; • 3. Each test compound was diluted with 100% DMSO to 4 mM as the first concentration, and then diluted in a 5-fold gradient to the 8th concentration (i.e., from 4 mM to […]) using a pipette. 1 μL of the compound was then added to 79 μL of cell starvation medium. The mixture was mixed well, and then the compound solution was added to the corresponding wells of the cell plate at 20 μL/well. The cell plate was then put back to the CO2 incubator for incubation for another 1 h. At that time, the concentration of the compound ranged from 10 μM to 0.0256 nM, with the concentration of DMSO being 0.25%. • 4. After the incubation was completed, the cell supernatant was discarded, and a cell lysis buffer was added at 50 μL/well. The plate was then incubated with shaking at room temperature for 30 min. 5. The Phospho-ERK1/2 Eu Cryptate antibody and Phospho-ERK1/2 d2 antibody were diluted in a 20-fold gradient with the Detection buffer. • 6. 16 μL of the cell lysate supernatant from each well was transferred to a new 384-well white microplate, and then 2 μL of the Phospho-ERK1/2 Eu Cryptate antibody dilution and 2 μL of the Phospho-ERK1/2 d2 antibody dilution were added to each well. The mixture was incubated at room temperature for 4 h. • 7. After the incubation was completed, HTRF values were read using a multimode microplate reader, with an excitation wavelength of 320 nm and emission wavelengths of 615 nm and 665 nm.
The original data were converted to inhibition rates and then the IC50 values were obtained by curve fitting using a four-parameter method.

`Cc1nc(Sc2ccnc(N)c2Cl)cnc1N1CCC2(CC1)Cn1nccc1C2N` (stereo not drawn) [Compound 10]: the figures for the half-maximal inhibitory concentration (IC50) (in experiment [1]; against SHP2; in experiment [2]) were 19.3 nM, 1.09 nM and 38.9 nM, respectively.

Take `CONc1nccc(Sc2nc(CO)c(N3CCC4(CC3)Cn3nccc3C4N)nc2C)c1Cl` (stereo not drawn) [Compound 8]: the concentration for half-maximal inhibition (IC50) against SHP2 amounted to 3.99 nM.

For the compound `Cc1nc(N2CCC3(CC2)Cn2nccc2C3N)c(C(N)=O)nc1Sc1ccnc(N)c1Cl` (stereo not drawn) [Compound 5], the IC50 in experiment [1] amounted to 48.5 nM; against SHP2, 3.24 nM; in experiment [2] it was 43.1 nM; in experiment [3], 45.3 nM.

Consider `Cc1nc(N2CCC3(CC2)Cn2nccc2C3N)c(CO)nc1Sc1cccc(Cl)c1Cl` (stereo not drawn) [Compound 3], for which the half-maximal inhibitory concentration (IC50) in experiment [1] stood at 35 nM; at SHP2 it was 2.28 nM; in experiment [2] it was 62.1 nM; in experiment [3] it was 55.6 nM.
